Values of other authors in patent US6197304A, “Whitening cosmetics containing solvent-fractionated extracts of ramulus mori extract” (priority 1997, dated 2001).
Entries after “also recorded” stand apart in the source; their conditions may differ.

Key:
tyrosinase = conditions: prior art
skin = conditions: prior art

| Structure (SMILES) | tyrosinase inhibition / whitening activity (in words) (tyrosinase) | skin irritation (in words) (skin) |
| --- | --- | --- |
| O=c1cc(CO)occ1O [Comparative 3, kojic acid] | high activity; also recorded: relatively high whitening effect |  |
| Oc1ccc(O)cc1 [Hydroquinone, hydroquinone] |  | irritates the skin strongly |
| O=C1O[C@H]([C@@H](O)CO)C(O)=C1O [Ascorbic acid, ascorbic acid] | relatively low activity of inhibiting tyrosinase |  |
